Reference: patent publication US20170280720A1, “ARGININE […] INHIBITORS AND USES THEREOF” (EPIZYME, INC., priority 2014, published 2017)

Experiments:
[1] = biological target: T1, Human CARM1 (PRMT4) (Homo sapiens, UniProt Q86X55); test: CARM1 biochemical assay (3H-SAM Flashplate, peptide substrate); details: read-out: CARM1_ IC50
T1 construct: Flag-CARM1-His; made in house; host or cells: HEK 293F cells (BacMam baculovirus, pFastBacMam)
T1 sequence (Q86X55 2-585 isoform Q86X55-1): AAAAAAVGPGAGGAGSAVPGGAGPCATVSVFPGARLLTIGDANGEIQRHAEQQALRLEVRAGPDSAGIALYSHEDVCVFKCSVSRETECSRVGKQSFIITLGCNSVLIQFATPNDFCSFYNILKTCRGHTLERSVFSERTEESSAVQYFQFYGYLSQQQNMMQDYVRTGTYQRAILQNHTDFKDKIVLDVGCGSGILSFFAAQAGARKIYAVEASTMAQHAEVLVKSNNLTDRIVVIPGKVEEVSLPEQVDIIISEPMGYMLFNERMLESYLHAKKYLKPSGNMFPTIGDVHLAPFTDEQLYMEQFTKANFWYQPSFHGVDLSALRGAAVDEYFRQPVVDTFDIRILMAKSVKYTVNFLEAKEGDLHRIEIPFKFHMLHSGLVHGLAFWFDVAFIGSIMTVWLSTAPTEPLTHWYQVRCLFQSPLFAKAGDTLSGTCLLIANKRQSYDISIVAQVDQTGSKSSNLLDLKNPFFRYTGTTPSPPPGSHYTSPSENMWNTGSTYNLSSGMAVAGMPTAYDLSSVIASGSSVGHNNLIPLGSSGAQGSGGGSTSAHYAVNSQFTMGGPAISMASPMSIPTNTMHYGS
Procedure, shortened: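 FLAG/His-tagged human CARM1 (isoform 1, Δ539-561, baculovirus-expressed), 0.25 nM, preincubated 30 min at room temperature with compound (2% DMSO) in 20 mM Bicine pH 7.6, then reacted with 30 nM 3H-SAM and 250 nM biotinylated H3 16-30 peptide (R26 monomethyl). Stopped with 300 uM cold SAM; labelled peptide captured on streptavidin Flashplate; % inhibition versus DMSO and 1 mM SAH controls fitted to a 4- or 3-parameter curve.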

[2] = biological target: PRMT5 (Homo sapiens, UniProt O14744); test: PRMT5 IC50 (Table 2; no method described); type: biochemical; details: read-out: PRMT5_ IC50
Sequence of PRMT5 (O14744 whole entry, species assumed): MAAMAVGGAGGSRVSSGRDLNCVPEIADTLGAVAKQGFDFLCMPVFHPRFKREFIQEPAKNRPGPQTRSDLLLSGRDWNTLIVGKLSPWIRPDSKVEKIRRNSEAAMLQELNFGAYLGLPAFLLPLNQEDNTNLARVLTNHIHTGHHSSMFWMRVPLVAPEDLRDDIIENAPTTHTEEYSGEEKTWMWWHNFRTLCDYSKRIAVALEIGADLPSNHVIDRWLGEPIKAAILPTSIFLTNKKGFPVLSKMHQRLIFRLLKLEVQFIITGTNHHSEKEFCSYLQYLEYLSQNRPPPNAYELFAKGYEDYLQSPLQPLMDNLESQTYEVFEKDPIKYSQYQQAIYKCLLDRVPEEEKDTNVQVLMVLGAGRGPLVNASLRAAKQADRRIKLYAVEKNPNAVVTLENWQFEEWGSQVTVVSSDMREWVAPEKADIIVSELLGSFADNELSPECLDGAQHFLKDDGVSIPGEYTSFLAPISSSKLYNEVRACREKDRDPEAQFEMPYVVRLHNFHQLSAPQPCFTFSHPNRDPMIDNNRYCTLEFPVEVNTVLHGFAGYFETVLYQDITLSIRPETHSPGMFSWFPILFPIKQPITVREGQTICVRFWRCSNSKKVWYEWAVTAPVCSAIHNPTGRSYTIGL
Sequence of PRMT5 (Q9BQA1 whole entry partner, species assumed): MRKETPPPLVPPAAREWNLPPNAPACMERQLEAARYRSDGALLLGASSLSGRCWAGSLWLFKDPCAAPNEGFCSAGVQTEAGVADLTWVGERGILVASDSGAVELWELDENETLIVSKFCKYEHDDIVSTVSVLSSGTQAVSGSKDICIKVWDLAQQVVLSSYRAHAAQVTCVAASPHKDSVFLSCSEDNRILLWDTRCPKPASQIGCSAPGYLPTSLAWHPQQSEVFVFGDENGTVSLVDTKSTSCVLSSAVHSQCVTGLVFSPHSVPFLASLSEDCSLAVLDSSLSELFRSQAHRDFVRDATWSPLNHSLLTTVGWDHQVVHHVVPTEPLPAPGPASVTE

| SMILES | IC50 [1] [µM] | IC50 [2] [µM] |
| --- | --- | --- |
| Cc1cc(C)c(CNC(=O)c2cc(CNCCN(C)C)cc3c2cnn3C2CCCC2)c(=O)[nH]1 [Compound 371] | 28.3 | – |
| CNCCN(C)Cc1cccc(-c2cc(C(=O)NCc3c(C)cc(C)[nH]c3=O)c3cnn(C(C)C)c3n2)c1 [Compound 368] | 0.00611 | – |
| CNCCN(C)Cc1ccc(-c2cncc(C(=O)NCc3c(C)cc(C)[nH]c3=O)c2)cc1 [Compound 373] | 5.77 | 14.7 |
| CNCCN(C)Cc1cccc(-c2cc(C(=O)NCc3c(C)cc(C)[nH]c3=O)c(C)c3[nH]ncc23)c1 [Compound 372] | 4.31 | – |
| COc1nc(C)cc(C)c1CNC(=O)c1cc(-c2cccc(CN(C)CCN(C)C)c2)nc2c1cnn2C(C)C [Compound 386] | 0.209 | – |
| Cc1cc(C)c(CNC(=O)c2cc(-c3cccc(CNCCN)c3)cc3[nH]ncc23)c(=O)[nH]1 [Compound 366] | 1.39 | 4.2 |
| CNCCN(C)Cc1cccc(-c2cc(C(=O)NCCCCCC(=O)NCc3c(C)cc(C)[nH]c3=O)c3cnn(C(C)C)c3n2)c1 [Compound 382] | 0.00901 | – |
| CNCCN(C)Cc1cccc(-c2cc(C(=O)NCCCC(=O)NCc3c(C)cc(C)[nH]c3=O)c3cnn(C(C)C)c3n2)c1 [Compound 383] | 0.00839 | – |
| CNCCN(C)Cc1cccc(-c2cc(C(=O)NCc3c(C)cc(C)[nH]c3=O)c3cnn(C(C)C)c3c2)c1 [Compound 367] | 0.184 | – |
| Cc1cc(C)c(CNC(=O)c2cc(-c3cccc(CNCCN)c3)nc3c2cnn3C(C)C)c(=O)[nH]1 [Compound 365] | 0.0144 | 49 |
| Cc1cc(C)c(CNC(=O)c2cc(-c3cccc(CN(C)CCN(C)C)c3)nc3c2cnn3C(C)C)c(=O)[nH]1 [Compound 361] | 0.254 | – |
| Cc1cc(C)c(CNC(=O)c2cncc(-c3ccc(CN(C)CCN)cc3)c2)c(=O)[nH]1 [Compound 374] | 9.83 | 44.3 |
| Cc1cc(C)c(CNC(=O)c2cc(-c3ccc(CNCCN(C)C)cc3)nc3c2cnn3C(C)C)c(=O)[nH]1 [Compound 359] | 50 | – |
| COc1nc(C)cc(C)c1CNC(=O)c1cc(-c2cccc(CNCCN)c2)nc2c1cnn2C(C)C [Compound 391] | 0.141 | 30.5 |
| CNCCN(C)Cc1cccc(-c2nc(C(=O)NCc3cn4ccsc4n3)c3cnn(C4CC4)c3n2)c1 [Compound 180] | 0.0089 | 200 |
| CC(C)n1ncc2c(C(=O)N(C)CC3CCOCC3)cc(-c3cccc(CN(C)CCN)c3)nc21 [Compound 256] | 0.0631 | 50 |
| Cc1cc(C)c(CNC(=O)c2cc(-c3cccc(CN(C)CCN)c3)nc3c2cnn3C(C)C)c(=O)[nH]1 [Compound 360] | 0.0195 | 15.4 |
| Cc1cc(C)c(CNC(=O)c2cncc(-c3ccc(CNCCN)cc3)c2)c(=O)[nH]1 [Compound 379] | 6.57 | 2.12 |

Second part, the compound after the results:

| IC50 [1] [µM] | IC50 [2] [µM] | SMILES |
| --- | --- | --- |
| 1.98 | – | CNCCN(C)Cc1ccc(-c2cc(C(=O)NCc3c(C)cc(C)[nH]c3=O)c(C)c3n[nH]cc23)cc1 [Compound 362] |
| 0.0188 | – | CNCCN(C)Cc1cccc(-c2cc(C(=O)NCCC(=O)NCc3c(C)cc(C)[nH]c3=O)c3cnn(C(C)C)c3n2)c1 [Compound 384] |
| 0.0168 | – | CNCCN(C)Cc1cccc(-c2nc(NCc3nccs3)c3cnn(C4CC4)c3n2)c1 [Compound 2] |
| 0.205 | 34.3 | CNCCN(C)Cc1cccc(-c2cc(C(=O)N(C)Cc3ccccn3)c3cnn(C(C)C)c3n2)c1 [Compound 300] |
| 0.00711 | – | CNCCN(C)Cc1cccc(-c2cc(C(=O)NCCCCC(=O)NCc3c(C)cc(C)[nH]c3=O)c3cnn(C(C)C)c3n2)c1 [Compound 385] |
| 0.0103 | 12.1 | CNCCN(C)Cc1cccc(-c2cc(C(=O)NCc3ccncc3)c3cnn(C(C)C)c3n2)c1 [Compound 182] |
| 7.26 | – | CNCCN(C)Cc1ccc(-c2cc(C(=O)NCc3c(C)cc(C)[nH]c3=O)c(C)c3nn(C4CCCC4)cc23)cc1 [Compound 370] |
| 0.0722 | 7.73 | CN(CCN)Cc1cccc(-c2ccc(C(=O)NCC3CCOCC3)c(N(C)CC3CC3)c2)c1 [Compound 263] |
| 19.6 | 66.6 | Cc1cc(C)c(CNC(=O)c2cncc(-c3ccc(CN(C)CCN(C)C)cc3)c2)c(=O)[nH]1 [Compound 378] |
